Laboratory results: ChEMBL document CHEMBL3526031, “Mechanistic studies on the absorption and disposition of scutellarin in humans: selective OATP2B1-mediated hepatic uptake is a likely key determinant for its unique pharmacokinetic characteristics” (Drug Metab Dispos, 2012)

Tests used:
Liver microsome [1] = assay: Drug metabolism in rat liver microsomes assessed as formation of scutellarein-6,7-diglucuronide after 7 mins by HPLC/UV analysis; type: ADME; settings: for Km / Vmax: rat, microsomes, 7 min
[2] = biological target: T1, UDP-glucuronosyltransferase 1A1 (Homo sapiens, UniProt P22309); assay: Drug metabolism assessed as human recombinant UGT1A1-mediated formation of scutellarein-6,7-diglucuronide after 25 mins by HPLC/UV analysis; type: ADME
T1 sequence (P22309 whole entry): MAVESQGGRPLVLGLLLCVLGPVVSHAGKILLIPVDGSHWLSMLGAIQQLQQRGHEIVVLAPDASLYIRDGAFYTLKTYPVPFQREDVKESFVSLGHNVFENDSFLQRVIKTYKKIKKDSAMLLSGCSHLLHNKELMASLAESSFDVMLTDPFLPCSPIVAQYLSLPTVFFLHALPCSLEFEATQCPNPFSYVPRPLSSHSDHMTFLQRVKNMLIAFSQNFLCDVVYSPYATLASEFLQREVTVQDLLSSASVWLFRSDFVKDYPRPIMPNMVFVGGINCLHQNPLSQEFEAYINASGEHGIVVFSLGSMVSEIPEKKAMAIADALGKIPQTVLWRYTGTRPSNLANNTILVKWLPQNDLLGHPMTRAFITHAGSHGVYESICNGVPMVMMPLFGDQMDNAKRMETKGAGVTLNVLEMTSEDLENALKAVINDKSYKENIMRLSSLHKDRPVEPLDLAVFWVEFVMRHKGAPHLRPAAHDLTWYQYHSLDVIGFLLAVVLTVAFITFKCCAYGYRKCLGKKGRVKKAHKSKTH

Liver microsome [3] = assay: Ratio of Vmax to Km for drug metabolism in rat liver microsomes assessed as formation of scutellarein-6,7-diglucuronide after 7 mins by HPLC/UV analysis; type: ADME
Homo sapiens [4] = assay: Drug metabolism in human assessed as retention time of parent compound at 40 mg, po up to 20 hrs by mass defect filter chromatogram analysis; type: ADME, organism-based; settings: in vivo
[5] = biological target: ATP-binding cassette sub-family C member 2 (Homo sapiens, UniProt Q92887); assay: Drug uptake assessed as human MRP2-mediated drug transport using inside-out membrane vesicles by measuring +ATP/-ATP ratio by LC-MS/MS analysis; type: ADME
[6] = biological target: T2, Broad substrate specificity ATP-binding cassette transporter ABCG2 (Homo sapiens, UniProt Q9UNQ0); assay: Inhibition of human BCRP-mediated methotrexate transport using inside-out membrane vesicles by LC-MS/MS analysis; type: ADME
T2 sequence (Q9UNQ0 whole entry): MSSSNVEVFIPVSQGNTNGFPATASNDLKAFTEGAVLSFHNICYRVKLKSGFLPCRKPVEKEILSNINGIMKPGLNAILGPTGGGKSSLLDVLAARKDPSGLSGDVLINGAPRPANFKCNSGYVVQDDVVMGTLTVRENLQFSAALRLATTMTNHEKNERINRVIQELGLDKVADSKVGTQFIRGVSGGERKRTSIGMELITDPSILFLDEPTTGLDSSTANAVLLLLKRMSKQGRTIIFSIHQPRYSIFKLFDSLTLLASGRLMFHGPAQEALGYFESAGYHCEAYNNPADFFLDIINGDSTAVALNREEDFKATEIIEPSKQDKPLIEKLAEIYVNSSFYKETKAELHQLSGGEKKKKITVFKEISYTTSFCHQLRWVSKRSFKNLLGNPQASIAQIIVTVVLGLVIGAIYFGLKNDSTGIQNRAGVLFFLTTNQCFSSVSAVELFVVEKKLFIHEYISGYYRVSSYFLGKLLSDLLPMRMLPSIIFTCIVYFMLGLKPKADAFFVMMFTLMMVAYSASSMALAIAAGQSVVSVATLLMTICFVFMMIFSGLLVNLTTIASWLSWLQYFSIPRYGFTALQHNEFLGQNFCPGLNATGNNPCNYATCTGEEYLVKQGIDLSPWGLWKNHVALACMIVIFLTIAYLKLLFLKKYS

[7] = Cmax in human at 60 mg, po; type: ADME, organism-based; set-up: dose 60 mg, route oral; settings: in vivo
Homo sapiens [8] = assay: Drug level in human assessed as retention time treated with 40 mg, po of scutellarin measured up to 20 hrs by mass defect filter chromatogram analysis; type: ADME, organism-based
[9] = biological target: T3, Solute carrier organic anion transporter family member 2B1 (Homo sapiens, UniProt O94956); assay: Drug uptake assessed as OATP2B1 (unknown origin)-mediated drug transport expressed in HEK293 cells by LC-MS/MS analysis; type: ADME, cell-based
T3 sequence (O94956 whole entry): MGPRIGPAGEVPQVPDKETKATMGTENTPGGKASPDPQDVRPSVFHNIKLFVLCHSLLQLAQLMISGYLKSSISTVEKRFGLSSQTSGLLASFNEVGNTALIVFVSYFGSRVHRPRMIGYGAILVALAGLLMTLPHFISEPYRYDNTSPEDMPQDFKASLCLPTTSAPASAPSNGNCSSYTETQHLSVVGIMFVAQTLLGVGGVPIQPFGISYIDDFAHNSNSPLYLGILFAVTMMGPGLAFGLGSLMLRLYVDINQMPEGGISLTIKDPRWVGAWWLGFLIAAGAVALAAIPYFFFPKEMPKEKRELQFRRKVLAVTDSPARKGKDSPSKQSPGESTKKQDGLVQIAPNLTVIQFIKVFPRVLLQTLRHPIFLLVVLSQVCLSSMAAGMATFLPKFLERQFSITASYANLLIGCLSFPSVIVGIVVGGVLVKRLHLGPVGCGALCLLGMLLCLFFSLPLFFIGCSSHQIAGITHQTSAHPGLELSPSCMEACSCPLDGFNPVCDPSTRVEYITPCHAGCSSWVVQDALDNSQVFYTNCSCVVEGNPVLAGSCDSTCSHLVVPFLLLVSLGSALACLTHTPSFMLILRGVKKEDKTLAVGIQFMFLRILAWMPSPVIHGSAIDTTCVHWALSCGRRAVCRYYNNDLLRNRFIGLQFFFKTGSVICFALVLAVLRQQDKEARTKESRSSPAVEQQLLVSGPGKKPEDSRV

[10] = biological target: T4, UDP-glucuronosyltransferase 1A8 (Homo sapiens, UniProt Q9HAW9); assay: Drug metabolism assessed as human recombinant UGT1A8-mediated formation of scutellarein-6,7-diglucuronide after 25 mins by HPLC/UV analysis; type: ADME; settings: recombinant enzyme
T4 sequence (Q9HAW9 whole entry): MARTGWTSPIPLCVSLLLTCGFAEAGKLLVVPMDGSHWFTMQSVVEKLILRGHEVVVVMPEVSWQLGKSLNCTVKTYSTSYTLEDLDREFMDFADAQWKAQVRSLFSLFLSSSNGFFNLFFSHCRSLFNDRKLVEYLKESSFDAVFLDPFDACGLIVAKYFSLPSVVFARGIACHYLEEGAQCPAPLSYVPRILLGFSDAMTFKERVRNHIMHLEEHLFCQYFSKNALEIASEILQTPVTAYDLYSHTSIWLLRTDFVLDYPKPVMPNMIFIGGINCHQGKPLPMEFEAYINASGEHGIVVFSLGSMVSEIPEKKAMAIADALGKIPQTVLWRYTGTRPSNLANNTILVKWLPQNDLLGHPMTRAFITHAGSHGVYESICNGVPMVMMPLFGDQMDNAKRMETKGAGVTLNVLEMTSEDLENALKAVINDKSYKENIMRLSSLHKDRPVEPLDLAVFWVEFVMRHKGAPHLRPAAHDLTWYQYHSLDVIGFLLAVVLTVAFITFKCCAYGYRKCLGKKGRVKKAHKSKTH

Sequence of ATP-binding cassette sub-family C member 2 (Q92887 whole entry): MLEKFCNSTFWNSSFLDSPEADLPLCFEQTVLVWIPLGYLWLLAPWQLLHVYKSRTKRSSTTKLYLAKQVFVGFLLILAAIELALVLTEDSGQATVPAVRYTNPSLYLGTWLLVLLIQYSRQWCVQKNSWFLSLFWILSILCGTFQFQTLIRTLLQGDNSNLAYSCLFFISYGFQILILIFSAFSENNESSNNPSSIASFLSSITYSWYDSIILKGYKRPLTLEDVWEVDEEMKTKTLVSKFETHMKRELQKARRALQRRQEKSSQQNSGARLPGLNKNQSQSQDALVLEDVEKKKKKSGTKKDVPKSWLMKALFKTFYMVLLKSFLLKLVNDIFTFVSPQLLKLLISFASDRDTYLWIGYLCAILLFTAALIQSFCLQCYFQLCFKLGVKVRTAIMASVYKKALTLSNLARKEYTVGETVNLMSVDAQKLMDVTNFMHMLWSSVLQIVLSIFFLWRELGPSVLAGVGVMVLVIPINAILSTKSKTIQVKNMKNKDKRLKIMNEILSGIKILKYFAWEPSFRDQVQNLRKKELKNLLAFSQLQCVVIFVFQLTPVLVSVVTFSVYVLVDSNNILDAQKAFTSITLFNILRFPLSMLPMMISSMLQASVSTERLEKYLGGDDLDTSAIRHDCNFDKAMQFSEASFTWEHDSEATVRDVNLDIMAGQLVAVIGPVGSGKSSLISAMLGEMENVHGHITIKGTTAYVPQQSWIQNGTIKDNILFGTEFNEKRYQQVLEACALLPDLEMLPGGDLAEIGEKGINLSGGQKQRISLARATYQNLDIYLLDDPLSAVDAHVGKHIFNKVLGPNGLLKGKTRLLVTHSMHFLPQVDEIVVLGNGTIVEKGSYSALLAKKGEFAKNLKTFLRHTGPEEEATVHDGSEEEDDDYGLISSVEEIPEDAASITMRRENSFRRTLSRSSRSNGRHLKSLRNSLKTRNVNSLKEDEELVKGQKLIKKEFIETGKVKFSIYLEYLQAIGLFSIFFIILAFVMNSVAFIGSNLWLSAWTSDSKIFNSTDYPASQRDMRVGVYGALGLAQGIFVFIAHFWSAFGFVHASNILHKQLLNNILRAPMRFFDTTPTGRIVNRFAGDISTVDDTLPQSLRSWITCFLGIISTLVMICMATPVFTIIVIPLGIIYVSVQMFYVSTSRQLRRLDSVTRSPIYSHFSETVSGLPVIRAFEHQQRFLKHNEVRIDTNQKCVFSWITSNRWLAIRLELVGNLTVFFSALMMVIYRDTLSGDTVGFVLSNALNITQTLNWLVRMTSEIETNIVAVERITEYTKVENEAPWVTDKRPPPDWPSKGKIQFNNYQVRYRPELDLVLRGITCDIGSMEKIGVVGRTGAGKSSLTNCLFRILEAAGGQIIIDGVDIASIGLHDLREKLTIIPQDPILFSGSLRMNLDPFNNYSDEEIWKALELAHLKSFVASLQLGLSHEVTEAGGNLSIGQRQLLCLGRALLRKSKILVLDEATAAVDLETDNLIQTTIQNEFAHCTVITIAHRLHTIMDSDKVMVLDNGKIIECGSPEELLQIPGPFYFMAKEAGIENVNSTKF

| Retention_time (Homo sapiens [8]) | Ki [9] | Vmax [10] | Structure (SMILES) | Ki (Liver microsome [1]) | Km (Liver microsome [1]) | Vmax (Liver microsome [1]) | Ki [2] | Vmax/Km (Liver microsome [3]) | Retention_time (Homo sapiens [4]) | Ratio [5] | IC50 [6] | Cmax [7] |
| --- | --- | --- | --- | --- | --- | --- | --- | --- | --- | --- | --- | --- |
| – | – | – | O=C(O)[C@H]1O[C@@H](Oc2cc3oc(-c4ccc(O)cc4)cc(=O)c3c(O)c2O)[C@H](O)[C@@H](O)[C@@H]1O [SCUTELLARIN] | 302 µM | 15.2 µM | 3.1 nmol/min/mg | 96.6 µM | 204 µL/min/mg | 7.93 min | 3.07 | 10 µM | < 4 nM |
| 9.19 min | 25.9 µM | 0.465 nmol/min/mg | O=C(O)[C@H]1O[C@@H](Oc2c(O)cc3oc(-c4ccc(O)cc4)cc(=O)c3c2O)[C@H](O)[C@@H](O)[C@@H]1O | 78.3 µM | 21.2 µM | 1.94 nmol/min/mg | – | 91.3 µL/min/mg | – | 3.07 | 20 µM | – |
